Measured values: patent US4611059A, “Pyridyl-substituted benzothiophenes” (The Upjohn Company, priority 1985, dated 1986)

Target: T1, TXA2 synthetase (Homo sapiens, UniProt P24557)
T1 construct: human platelet microsomes (HPM); from tissue; host or cells: human platelet microsomes
T1 sequence (P24557 1-533): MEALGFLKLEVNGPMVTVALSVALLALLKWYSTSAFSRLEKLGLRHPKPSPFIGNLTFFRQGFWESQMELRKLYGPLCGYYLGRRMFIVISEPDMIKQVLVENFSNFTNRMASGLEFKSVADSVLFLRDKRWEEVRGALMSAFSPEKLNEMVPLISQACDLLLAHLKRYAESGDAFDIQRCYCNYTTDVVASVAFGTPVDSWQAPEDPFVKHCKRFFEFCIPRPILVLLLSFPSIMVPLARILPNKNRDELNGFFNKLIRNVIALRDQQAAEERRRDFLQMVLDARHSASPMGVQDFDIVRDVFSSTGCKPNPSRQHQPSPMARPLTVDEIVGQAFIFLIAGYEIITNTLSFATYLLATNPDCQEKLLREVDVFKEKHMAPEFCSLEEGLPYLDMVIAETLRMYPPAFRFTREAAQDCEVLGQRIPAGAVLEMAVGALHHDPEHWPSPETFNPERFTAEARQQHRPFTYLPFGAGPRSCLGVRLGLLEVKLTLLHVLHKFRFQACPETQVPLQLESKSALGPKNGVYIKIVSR
Experiment: TXA2 inhibition test: TXA2 generated from PGH2 with human platelet microsomes, measured by the response of superfused rabbit aortic strips
Format: biochemical
Settings: test compound added to human platelet microsomes 5 minutes before mixing with PGH2; rabbit aorta response; read-out: approximate ED50 (inhibiting TXA2 formation) (converted)
Experimental: The compounds of the present invention were tested for TXA2 inhibition as follows:
Rabbit aortic strips were superfused in series with Krebs solution. Thromboxane A2 (TXA2) was generated by mixing prostaglandin H2 (PGH2) with human platelet microsomes (HPM).
Potential inhibitors were tested by comparing the response of the rabbit aorta to the amount of TXA2 produced by mixing PGH2 and HPM without the test compound in the reaction medium and then the amount of TXA2 produced when the test compound was added to the HPM 5 minutes before the HPM was mixed with PGH2. […] For a discussion of TXA2 synthetase inhibition testing see, e.g., R. Gorman, supra.

In the case of `O=C(O)c1cc2cc(Cc3cccnc3)ccc2s1` [Example 7, 5-(3-pyridinylmethyl)benzo[b]thiophene-2-carboxylic acid], the IC50 is reported as roughly 3.71 nM.
